Results reported in patent US8642622B2, “Piperidinyl compound as a modulator of chemokine receptor activity” (Bristol-Myers Squibb Company, priority 2010, dated 2014).
Read-outs that look alike come from different tables or passages of the source.

Columns and labels:
[1] = target: T1, human cardiac sodium channel, SCNSA (Homo sapiens, UniProt Q14524); experiment: Sodium channel whole-cell patch-clamp assay; assay type: cell-based; conditions: HEK293, HEK-293, protein-free buffer, read-out: Na channel, % inh
T1 construct: expressed in transfected cells; host or cells: HEK-293
Procedure: Whole-cell patch-clamp was used to directly measure inward sodium currents in HEK-293 cells expressing the human cardiac sodium channel, SCNSA. After reach steady-state effect in the presence of drug, rate-dependence was assessed by stimulation at frequencies of 1 Hz and 4 Hz. Experiments were carried out using an aqueous buffer at pH 7.4 and at room temperature. There is no protein in the buffer and drug concentrations reported are nominal free drug levels. Test article was evaluated up to 10 μM (protein-free buffer). […] Data is reported as percent inhibition at a fixed concentration.

[2] = Single-dose pharmacokinetics in dogs; assay type: in vivo
Procedure: Serial blood samples were collected for all studies at various time points post dose (0.17 (or 0.25 for oral), 0.5, 0.75, 1, 2, 4, 6, 8 and 24 h, for example). Plasma samples were analyzed by LC-MS/MS.

[3] = Single-dose pharmacokinetics in rats; assay type: in vivo; conditions: for clearance / bioavailability: male, Sprague-Dawley, rat, plasma; for clearance: intravenous; for bioavailability: po
Procedure: Serial blood samples were collected for all studies from the jugular vein at various time points post dose (0.17 (or 0.25 for oral), 0.5, 0.75, 1, 2, 4, 6, 8 and 24 h, for example). Plasma samples were analyzed by LC-MS/MS.
Additional studies evaluating suspensions of crystalline drug substance in aqueous medium were performed as described above.

[4] = Electrocardiography in anesthetized rabbits (rabbit in vivo EP effect)
Procedure: A dose-response study of test compound was conducted in anesthetized rabbits to assess the cardiac electrophysiologic profile established in the cellular ion channel assays.
Experiments were performed in propofol-fentanyl anesthetized closed-chest male rabbits. A body surface electrocardiogram (ECG) and an intra-cardiac His-bundle electrogram were continuously monitored and recorded during the studies, using a PoNeMah system and a Prucka electrophysiological recording system, respectively. Test compound was prepared on the day of study in a vehicle of PEG400:ethanol:water (1:1:1) at a dosing concentration of 30 mg/mL. Test compound (n=3) or vehicle (n=3) was given intravenously over 5 minutes via an infusion pump at incremental doses of 3, 10 and 30 mg/kg. The interval between doses was 10 minutes, allowing for a 5-minute test agent infusion and a 5-minute rest period. Blood was sampled at baseline (pre-drug infusion) and immediately at the end of each infusion. For the 30 mg/kg dose, additional blood samples were taken at 10, 20 and 30 minutes after the end of infusion.
PR interval, QRS duration and QT interval were averaged from a 1 minute ECG recording period at time of blood sampling. QT interval was corrected for heart rate effects using both Fridericia (QTcf) and Van der Water (QTcv) formulae. AH and HV intervals, representing A-V node conduction and His-Purkinje conduction, respectively, were assessed by manual measurements from the His-bundle electrogram. Data were expressed as percent change from pre-drug baseline (mean±SEM) for PR, QRS, AH and HV intervals as well as delta change from the pre-drug infusion baseline (mean±SEM) for QTc intervals. Changes of 10% in PR, QRS, and AH intervals, and 20% in HV interval, as well as >10 ms in QTc interval are considered significant based on experience with the model.

[5] = Human liver microsomal metabolism, Assay Conditions B; assay type: in vitro ADME; conditions: 3 μM compound, 10 minutes, 37° C.
Procedure: Test compound is received as 20 mM in DMSO. Compound is diluted to create a 300 μM acetonitrile (ACN) solution containing 1.5% DMSO, which is then used as a 100× stock for incubation with microsomes. Each compound is tested in duplicate separately in each of three species in the Metabolic Stability-Human, Rat, Mouse assay suite or individual species in the Metabolic Stability-Dog or Metabolic Stability-Monkey suites. Compound, NADPH and liver microsome solutions are combined for incubation in three steps: • 1. 450 μL of liver microsome suspension, protein concentration of 1 mg/mL in 100 mM NaPi, pH 7.4, 6.6 mM MgCl2 buffer, are pre-warmed at 37° C. • 2. […] of 300 μM compound (98.5% CAN, 1.5% DMSO) is added to the same tube. • 3. The reaction is initiated by the addition of 50 μL of pre-warmed 5 mM NADPH solution in 100 mM NaPi, pH 7.4.
Reaction components are mixed well and 150 μL removed to quench/stop solution immediately for the zero-minute time point. Reactions are incubated at 37° C. for 10 minutes and then an additional 150 μL removed from incubation. Aliquots removed are combined with 300 μL ACN which contains 100 μM DMN as a UV standard for detection.
Quenched mixtures are centrifuged at 1500 rpm (˜500×g) in an Allegra X-12 centrifuge, SX4750 rotor (Beckman Coulter Inc., Fullerton, Calif.) for fifteen minutes to pellet denatured microsomes. A volume of 110 μl of supernatant extract, containing the mixture of parent compound and its metabolites, is then transferred to a separate 96-well plate for UV-LC/MS-MS analysis to determine the percent of parent compound that is remaining in the mixture.

[6] = Human liver microsomal metabolism, Assay Conditions A; assay type: in vitro ADME; conditions: 0.5 μM compound, 10 minutes, 37° C.
Procedure: Test compound is received as a 3.5 mM stock solution in 100 percent DMSO. Compound is diluted to create a 50 μM acetonitrile (ACN) solution containing 1.4% DMSO, which is then used as a 100× stock for incubation with microsomes. Each compound is tested in duplicate separately in each of three species in the Metabolic Stability-Human, Rat, and Mouse assay suite or as individual species in the Metabolic Stability-Dog or Metabolic Stability-Monkey suites. Compound, NADPH and liver microsome solutions are combined for incubation in three steps:
152 μL of liver microsome suspension, protein concentration of 1.1 mg/mL in 100 mM NaPi, pH 7.4, 6.6 mM MgCl2 buffer, is pre-warmed at 37° C.
• 1) 1.7 μL of 50 μM compound (98.6% ACN, 1.4% DMSO) is added to the same tube and pre-incubated at 37° C. for 5 minutes. • 2) The reaction is initiated by the addition of 17 μL of pre-warmed 10 mM NADPH solution in 100 mM NaPi, pH 7.4. • 3) Reaction components are mixed well, and 75 μL are immediately transferred into 150 μl quench/stop solution (zero-time point, To). Reactions are incubated at 37° C. for 10 minutes and then an additional 75 μL aliquot is transferred into 150 μL quench solution. Acetonitrile containing 100 μM DMN (a UV standard for injection quality control), is used as the quench solution to terminate metabolic reactions. • 4) Quenched mixtures are centrifuged at 1500 rpm (˜500×g) in an Allegra X-12 centrifuge, SX4750 rotor (Beckman Coulter Inc., Fullerton, Calif.) for fifteen minutes to pellet denatured microsomes. A volume of 90 μL of supernatant extract, containing the mixture of parent compound and its metabolites, is then transferred to a separate 96-well plate for UV-LC/MS-MS analysis to determine the percent of parent compound that is remaining in the mixture.

Human PXR = target: T2, Human PXR (Homo sapiens, UniProt O75469); experiment: PXR transactivation assay (HepG2, CYP3A-Luc reporter); assay type: cell-based; conditions: reported as EC60
T2 construct: expressed in transfected cells; host or cells: HepG2
T2 sequence (O75469 1-434): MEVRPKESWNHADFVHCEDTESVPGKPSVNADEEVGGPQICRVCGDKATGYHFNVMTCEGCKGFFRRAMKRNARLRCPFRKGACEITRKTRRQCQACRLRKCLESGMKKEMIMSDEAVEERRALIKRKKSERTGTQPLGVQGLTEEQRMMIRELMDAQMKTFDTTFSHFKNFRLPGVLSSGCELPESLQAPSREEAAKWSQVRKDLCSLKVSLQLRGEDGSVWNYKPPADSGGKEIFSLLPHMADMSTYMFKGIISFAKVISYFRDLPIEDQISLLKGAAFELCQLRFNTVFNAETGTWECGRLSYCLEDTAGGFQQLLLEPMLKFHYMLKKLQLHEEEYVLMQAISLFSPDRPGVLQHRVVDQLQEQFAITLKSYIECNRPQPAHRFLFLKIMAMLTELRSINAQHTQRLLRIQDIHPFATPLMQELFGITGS
Text: The cell culture medium used is DMEM. […] Charcoal/dextran treated fetal bovine serum (FBS) was purchased from Hyclone (Logan, Utah). HepG2 cells were obtained from ATCC (Manassas, Va.). Human PXR-pcDNA3 and luciferase reporter containing CYP3A4 promoter, CYP3A-Luc, were generated at Bristol-Myers Squibb. White tissue culture (TC)-surface 384-well plates were purchased from Perkin Elmer (Boston, Mass.). Luciferase substrate (Steady-Glo) was purchased from Promega (Madison, Wis.). Control compounds rifampicin, mifepristone, and sulfinpyrazone were purchased from Sigma (St. Louis, Mo.).
Culture of HepG2 cells is performed in T175 flasks using DMEM containing 10% FBS. The transfection mixture contains 1 μg/mL of PXR-pcDNA3 plasmid DNA, 20 μg/ml of Cyp3A-Luc plasmid DNA, 90 μL/mL of Lipofectamine 2000, and serum-free medium. After incubating at room temperature for 20 minutes, the transfection mixture (1 ml per flask) is applied to the cells in fresh medium (20 mL per flask), and flasks incubated at 37° C. (5% CO2) overnight.
The flasks are then tapped vigorously to break up cell aggregates. After the addition of 8 mL of DMEM containing 5% charcoal/dextran-treated FBS, the entire mixture is transferred to conical tubes. Cells are then centrifuged at 1000 rpm for 5 minutes. Cell pellets are resuspended to a final count of ˜7×10^6 cells/mL in freezing media (DMEM containing 20% serum and 10% DMSO). The cell suspension is aliquoted into 15-mL polypropylene tubes, 5 mL per tube. Cells are slowly frozen by placing in a Styrofoam-insulated container at −80° C. overnight. Vials are transferred to an Ultracold (−140° C.) freezer after 24 hours for long-term storage.
Vials of cryopreserved cells are thawed rapidly in a warm water bath for five minutes. Cells are pooled and diluted to 50 mL in a 50-mL conical vial. The thawed cells are centrifuged at 1500 rpm for 5 minutes to collect the cells and the supernatant discarded. Cells are then resuspended in fresh Media II (DMEM containing 5% charcoal/dextran-treated FBS, 1% Penicillin/Streptomycin, 100 μM Non-essential Amino Acids, 1 mM Sodium Pyruvate, and 2 mM L-Glutamine), counted using the Guava Cell Counter, and diluted to 1.6×10^5 cells/ml in the same media.
Fifty microliters of cell mixture is added to wells in columns 1-23 of white tissue-culture treated 384-well plates containing 0.25 μL of test compound dissolved in 100% DMSO. Fifty microliters of Media II is added to wells in column 24. The plates are incubated at 37° C. (5% CO2) for 24 hours, then 5 μL of Alamar Blue reagent (Trek Diagnostics, Cat #00-100) is added to each well. Plates are then incubated an additional two hours at 37° C., 5% CO2 and then one hour at room temperature. […] After the fluorescence is measured, 25 μL of luciferase substrate (Steady-Glo, Promega) is added to each well. The plates are incubated for fifteen minutes at room temperature, after which the luminescence is read on a PheraStar (BMG Labtech) plate reader.
Rifampicin (10 μM), a well-known agonist of PXR, is included in each plate as an internal standard and positive control. The data is then expressed as percent control (% CTRL), where the control signal is the signal from the 10 μM rifampicin and the blank signal is that from the DMSO vehicle. % CTRL=((Compound signal−Blank signal)/(Control signal−Blank signal))*100
The EC50 is defined as the concentration corresponding to half of the maximal response derived from the fitted 20-point curve as determined using a four-parameter logistic regression model. Additionally, compounds may also be reported as EC20 or EC60.

[7] = oral solution, read-out: Rat oral bioavailability when dosed as solution

T1 sequence (Q14524 whole entry): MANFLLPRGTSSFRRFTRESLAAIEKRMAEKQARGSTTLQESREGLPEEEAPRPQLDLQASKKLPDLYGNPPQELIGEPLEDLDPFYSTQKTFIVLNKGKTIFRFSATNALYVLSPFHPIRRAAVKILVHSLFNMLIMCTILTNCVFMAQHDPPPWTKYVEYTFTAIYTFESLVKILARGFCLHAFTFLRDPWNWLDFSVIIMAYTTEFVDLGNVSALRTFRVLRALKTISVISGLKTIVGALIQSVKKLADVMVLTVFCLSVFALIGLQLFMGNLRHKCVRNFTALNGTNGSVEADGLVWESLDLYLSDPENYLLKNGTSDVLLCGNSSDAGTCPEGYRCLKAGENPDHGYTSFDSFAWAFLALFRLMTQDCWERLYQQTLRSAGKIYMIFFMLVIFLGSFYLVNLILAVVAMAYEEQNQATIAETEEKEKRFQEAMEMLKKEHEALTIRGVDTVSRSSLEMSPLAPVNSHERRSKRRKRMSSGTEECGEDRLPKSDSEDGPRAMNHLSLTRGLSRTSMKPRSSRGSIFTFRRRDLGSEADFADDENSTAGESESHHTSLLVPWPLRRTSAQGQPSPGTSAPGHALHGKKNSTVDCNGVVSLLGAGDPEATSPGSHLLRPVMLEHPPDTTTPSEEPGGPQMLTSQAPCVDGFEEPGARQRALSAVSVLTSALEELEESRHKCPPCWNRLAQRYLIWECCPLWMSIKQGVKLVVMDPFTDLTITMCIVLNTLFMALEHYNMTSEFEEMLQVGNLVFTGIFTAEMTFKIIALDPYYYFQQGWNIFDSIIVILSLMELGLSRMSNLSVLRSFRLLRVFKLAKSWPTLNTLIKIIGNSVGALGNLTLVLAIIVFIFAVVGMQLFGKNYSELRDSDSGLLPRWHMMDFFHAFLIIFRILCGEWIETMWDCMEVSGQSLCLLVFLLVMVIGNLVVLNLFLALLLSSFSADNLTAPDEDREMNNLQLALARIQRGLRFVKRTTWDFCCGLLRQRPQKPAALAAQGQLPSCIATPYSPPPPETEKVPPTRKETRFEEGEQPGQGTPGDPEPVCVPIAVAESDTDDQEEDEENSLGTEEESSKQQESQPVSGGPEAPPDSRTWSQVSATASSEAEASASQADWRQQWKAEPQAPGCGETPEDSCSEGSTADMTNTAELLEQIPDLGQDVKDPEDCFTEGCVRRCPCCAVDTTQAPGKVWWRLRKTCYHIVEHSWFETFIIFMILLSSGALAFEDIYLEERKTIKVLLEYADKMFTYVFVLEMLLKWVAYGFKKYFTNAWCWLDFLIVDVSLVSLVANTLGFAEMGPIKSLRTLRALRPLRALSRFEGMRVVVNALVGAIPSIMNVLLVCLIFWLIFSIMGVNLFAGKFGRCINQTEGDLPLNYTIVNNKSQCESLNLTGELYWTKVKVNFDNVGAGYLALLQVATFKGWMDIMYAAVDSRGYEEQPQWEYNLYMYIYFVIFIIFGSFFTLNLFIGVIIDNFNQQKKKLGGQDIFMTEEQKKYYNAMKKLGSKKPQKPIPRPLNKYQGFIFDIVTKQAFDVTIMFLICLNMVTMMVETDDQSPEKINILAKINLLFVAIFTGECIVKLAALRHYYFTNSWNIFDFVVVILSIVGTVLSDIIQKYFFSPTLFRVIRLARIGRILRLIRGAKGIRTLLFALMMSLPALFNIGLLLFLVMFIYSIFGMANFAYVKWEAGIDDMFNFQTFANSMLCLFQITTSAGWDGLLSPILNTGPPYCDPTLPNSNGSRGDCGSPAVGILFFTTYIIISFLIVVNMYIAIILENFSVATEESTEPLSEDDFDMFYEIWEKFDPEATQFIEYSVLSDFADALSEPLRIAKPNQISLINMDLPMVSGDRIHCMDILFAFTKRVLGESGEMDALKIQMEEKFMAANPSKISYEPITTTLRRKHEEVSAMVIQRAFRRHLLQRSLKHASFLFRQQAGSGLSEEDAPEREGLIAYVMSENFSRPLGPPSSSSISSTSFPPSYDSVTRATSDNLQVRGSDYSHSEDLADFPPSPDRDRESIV

SMILES | clearance [3] | Human Liver Microsomal Metabolism % remaining (Assay Conditions B) [5] | Human Liver Microsomal Metabolism % remaining (Assay Conditions A) [6] | PXR EC60 (Human PXR) | other results
CC(C)[C@@H](NC(=O)[C@@H]1CC[C@@H](O)C1)C(=O)N1CC[C@](O)(c2ccc(Cl)cc2)C(C)(C)C1 [Example 572] | 29 mL/min/kg | – | – | – | inhibition at 10 µM [1]: 25%; clearance ([2]; male, beagle, dog, plasma, intravenous): 4.9 mL/min/kg; dog oral bioavailability when dosed as solution ([2]; oral solution): 72; bioavailability ([3]; crystalline suspension in aqueous medium, read-out: Relative bioavailability when dosed as a crystalline suspension): > 90%; Rat oral bioavailability when dosed as solution ([3]; oral solution): 37%; Cmax: Free drug (at NOEL dose) ([4]; at NOEL dose, free drug): < 6.3 µM; Cmax: Free drug (at QT effect dose) ([4]; at QT effect dose, free drug): 6.3 µM; QT effect Dose ([4]; i.v. infusion 3, 10, 30 mg/kg): 10 mg/kg; QTcf, delta ([4]; i.v. infusion, change from pre-drug baseline): +22 ms
CC(C)CC(=O)N[C@@H](C(=O)N1CC[C@](O)(c2ccc(Cl)cc2)C(C)(C)C1)C(C)C [Example 466] | – | 33% | 67% | 1.12 (EC60) μM | –
CC(C)[C@@H](NC(=O)C1CCCC1)C(=O)N1CC[C@](O)(c2ccc(Cl)cc2)C(C)(C)C1 [Example 460] | 10 mL/min/kg | 16% | 47% | – | bioavailability [3, 7]: 8%
CC[C@@H](C)NC(=O)N[C@@H](C(=O)N1CC[C@](O)(c2ccc(Cl)cc2)C(C)(C)C1)C(C)C [Example 897] | – | – | 59% (A) | >50 (EC60) μM | –

Second part, led by results:

clearance [3] | Human Liver Microsomal Metabolism % remaining (Assay Conditions B) [5] | Human Liver Microsomal Metabolism % remaining (Assay Conditions A) [6] | PXR EC60 (Human PXR) | SMILES | other results
– | 100% (A)/100% (B) | 100% (A)/100% (B) | – | CC(C)[C@@H](NC(=O)CC(C)(C)O)C(=O)N1CC[C@](O)(c2ccc(Cl)cc2)C(C)(C)C1 [Example 1356] | –
– | – | 99% (A) | 10.2 (EC60) μM | CC(C)NC(=O)N[C@@H](C(=O)N1CC[C@](O)(c2ccc(Cl)cc2)C(C)(C)C1)C(C)C [Example 850] | –
75 mL/min/kg | – | – | – | CC(C)[C@@H](NC(=O)c1cccc(C(=O)O)c1)C(=O)N1CC[C@](O)(c2ccc(Cl)cc2)C(C)(C)C1 [Example 463] | bioavailability [3, 7]: 9%
